Measured values taken from patent US6613800B1, “Method and compositions for treating psoriasis, eczema, seborrhea and arthritis” (priority 2001, dated 2003).

System: psoriasis
Assay: Case studies: clinical treatment of resistant psoriasis
Assay type: in vivo, human
Conditions: Case No. 9; Methotrexate 5-10 mg per week from April 2001, Psorex stopped; summer to August 2001
Description: The following case studies are presented to show results from clinical trials of the present invention on resistant cases of psoriasis, eczema and seborrhea.
A combination of Psorizide Ultra® and Psorex® was employed in some of these case studies. In others, a combination of Psorizide Ultra® and Fumaric Acid 1× was used. Psorizide Ultra® is a natural mineral homeopathic medication commercially available from Applicant's company, i.e. LOMA LUX Laboratories, 5801 E. 41st Street, Suite 200, Tulsa, Okla. 74135. This prescription drug includes active ingredients of nickel sulfate and potassium bromide.
Psorex® is a scientifically designed supplement containing reagent grade fumaric acid esters. This supplement is commercially available from Ecological Formulas at 1-800-888-4585. Each Psorex® capsule contains 120 mg fumaric acid ester.
Fumaric Acid 1×300 mg tablets are commercially available from B.H.I., 11600 Cochiti Road SE, Albuquerque, N.Mex. 87123-3376. Each Fumaric Acid 1× tablet contains approximately 30 mg of fumaric acid.
The patient is a person with a ten year history of psoriasis of the anogenital region. They had been treated with numerous topical lotions with only limited results. More recently they also developed left knee involvement and flaring of all disease sites due to surgery. They presented November 2000 complaining of itching. […]

## CN(Cc1cnc2nc(N)nc(N)c2n1)c1ccc(C(=O)N[C@@H](CCC(=O)O)C(=O)O)cc1 [Methotrexate®, Methotrexate]
  clinical condition of plaque psoriasis: doing very well through the summer, but by August 2001 the psoriasis was worse
